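96-well plates; 48 h exposure; 5 concentrations. Endpoints by linear interpolation between flanking doses. Not reached: highest tested concentration assigned. At the GI50, growth is halved. TGI marks complete inhibition of growth.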
Assays:
Test in all cases: DTP human tumour cell line panel, 48 h
786-0 renal = system: 786-0 renal
A498 renal = system: A498 renal
ACHN renal = system: ACHN renal
BT-549 breast = system: BT-549 breast
CAKI-1 renal = system: CAKI-1 renal
CCRF-CEM leukemia = system: CCRF-CEM leukemia
COLO 205 colon = system: COLO 205 colon
DU-145 prostate = system: DU-145 prostate
EKVX NSCLC = system: EKVX NSCLC
HCC-2998 colon = system: HCC-2998 colon
HCT-116 colon = system: HCT-116 colon
HCT-15 colon = system: HCT-15 colon
HL-60(TB) leukemia = system: HL-60(TB) leukemia
HOP-62 NSCLC = system: HOP-62 NSCLC
HOP-92 NSCLC = system: HOP-92 NSCLC
HS 578T breast = system: HS 578T breast
HT29 colon = system: HT29 colon
IGROV1 ovarian = system: IGROV1 ovarian
K-562 leukemia = system: K-562 leukemia
KM12 colon = system: KM12 colon
MCF7 breast = system: MCF7 breast
MOLT-4 leukemia = system: MOLT-4 leukemia
NCI-H226 lung = system: NCI-H226 lung
NCI-H460 lung = system: NCI-H460 lung
NCI/ADR-RES ovarian = system: NCI/ADR-RES ovarian
OVCAR-3 ovarian = system: OVCAR-3 ovarian
OVCAR-4 ovarian = system: OVCAR-4 ovarian
OVCAR-5 ovarian = system: OVCAR-5 ovarian
RPMI-8226 leukemia = system: RPMI-8226 leukemia
RXF 393 renal = system: RXF 393 renal
SF-268 CNS = system: SF-268 CNS
SF-295 CNS = system: SF-295 CNS
SF-539 CNS = system: SF-539 CNS
SK-MEL-2 melanoma = system: SK-MEL-2 melanoma
SK-MEL-5 melanoma = system: SK-MEL-5 melanoma
SK-OV-3 ovarian = system: SK-OV-3 ovarian
SNB-19 CNS = system: SNB-19 CNS
SNB-75 CNS = system: SNB-75 CNS
SR leukemia = system: SR leukemia
SW-620 colon = system: SW-620 colon
T-47D breast = system: T-47D breast
U251 CNS = system: U251 CNS
UACC-257 melanoma = system: UACC-257 melanoma
UACC-62 melanoma = system: UACC-62 melanoma
UO-31 renal = system: UO-31 renal

`Fc1ccc(-c2cc3nc(C(Cl)Cl)nc(-c4ccc(F)cc4)n3n2)cc1` gave a GI50 (786-0 renal) of 16.9 µM, a TGI (786-0 renal) greater than 100 µM and a GI50 (A498 renal) of 1.65 µM. It also gave a TGI (A498 renal) of 3.44 µM, a GI50 (ACHN renal) of 0.676 µM and a TGI (ACHN renal) of 4.16 µM. It also gave a GI50 (BT-549 breast) of 2.43 µM, a TGI (BT-549 breast) of 42.8 µM and a GI50 (CAKI-1 renal) of 1.89 µM. It also gave a TGI (CAKI-1 renal) of 6.74 µM, a GI50 (CCRF-CEM leukemia) of 4.21 µM and a TGI (CCRF-CEM leukemia) greater than 100 µM. The GI50 (COLO 205 colon) was 1.15 µM, the TGI (COLO 205 colon) was 2.52 µM and the GI50 (DU-145 prostate) was 0.443 µM. The TGI (DU-145 prostate) was 2.97 µM, the GI50 (EKVX NSCLC) was 1.68 µM and the TGI (EKVX NSCLC) was 4.37 µM. For the same molecule, the GI50 (HCC-2998 colon) was 1.01 µM, the TGI (HCC-2998 colon) was 2.35 µM and the GI50 (HCT-116 colon) was 0.637 µM. It also gave a TGI (HCT-116 colon) of 6.3 µM, a GI50 (HCT-15 colon) of 1.11 µM and a TGI (HCT-15 colon) of 6.16 µM. It also gave a GI50 (HL-60(TB) leukemia) of 0.69 µM, a GI50 (HOP-62 NSCLC) of 1.5 µM and a TGI (HOP-62 NSCLC) of 4.26 µM. It also gave a GI50 (HOP-92 NSCLC) of 2.6 µM, a TGI (HOP-92 NSCLC) of 9.69 µM and a GI50 (HS 578T breast) of 4.14 µM. For the same molecule, the TGI (HS 578T breast) was greater than 100 µM, the GI50 (HT29 colon) was 0.746 µM and the TGI (HT29 colon) was 3.85 µM. The GI50 (IGROV1 ovarian) was 3.99 µM, the TGI (IGROV1 ovarian) was greater than 100 µM and the GI50 (K-562 leukemia) was 2.3 µM. The TGI (K-562 leukemia) was greater than 100 µM, the GI50 (KM12 colon) was 1.73 µM and the TGI (KM12 colon) was 5.22 µM. It also gave a GI50 (MCF7 breast) of 1.21 µM, a TGI (MCF7 breast) greater than 100 µM and a GI50 (MOLT-4 leukemia) of 1.8 µM. The TGI (MOLT-4 leukemia) was 9.61 µM, the GI50 (NCI-H226 lung) was 6.14 µM and the TGI (NCI-H226 lung) was greater than 100 µM. For the same molecule, the GI50 (NCI-H460 lung) was 0.591 µM, the TGI (NCI-H460 lung) was 3.17 µM and the GI50 (NCI/ADR-RES ovarian) was 1.26 µM. For the same molecule, the TGI (NCI/ADR-RES ovarian) was 5.84 µM, the GI50 (OVCAR-3 ovarian) was 1.54 µM and the TGI (OVCAR-3 ovarian) was 3.51 µM. It also gave a GI50 (OVCAR-4 ovarian) of 1.82 µM, a TGI (OVCAR-4 ovarian) of 5.75 µM and a GI50 (OVCAR-5 ovarian) of 2.27 µM. It also gave a TGI (OVCAR-5 ovarian) of 7.29 µM, a GI50 (RPMI-8226 leukemia) of 2.66 µM and a TGI (RPMI-8226 leukemia) greater than 100 µM. The GI50 (RXF 393 renal) was 1.1 µM, the TGI (RXF 393 renal) was 2.43 µM and the GI50 (SF-268 CNS) was 2.48 µM. It also gave a TGI (SF-268 CNS) greater than 100 µM, a GI50 (SF-295 CNS) of 2.17 µM and a TGI (SF-295 CNS) of 5.78 µM. For the same molecule, the GI50 (SF-539 CNS) was 3.56 µM, the TGI (SF-539 CNS) was greater than 100 µM and the GI50 (SK-MEL-2 melanoma) was greater than 100 µM. It also gave a TGI (SK-MEL-2 melanoma) greater than 100 µM, a GI50 (SK-MEL-5 melanoma) greater than 100 µM and a TGI (SK-MEL-5 melanoma) greater than 100 µM. For the same molecule, the GI50 (SK-OV-3 ovarian) was 2.36 µM, the TGI (SK-OV-3 ovarian) was 6.34 µM and the GI50 (SNB-19 CNS) was 1.65 µM. For the same molecule, the TGI (SNB-19 CNS) was 6.88 µM, the GI50 (SNB-75 CNS) was 64.9 µM and the TGI (SNB-75 CNS) was greater than 100 µM. It also gave a GI50 (SR leukemia) of 1.4 µM, a TGI (SR leukemia) greater than 100 µM and a GI50 (SW-620 colon) of 1.11 µM. It also gave a TGI (SW-620 colon) of 6.85 µM, a GI50 (T-47D breast) of 2.62 µM and a TGI (T-47D breast) greater than 100 µM. For the same molecule, the GI50 (U251 CNS) was 1.22 µM, the TGI (U251 CNS) was 5.27 µM and the GI50 (UACC-257 melanoma) was 2.26 µM. It also gave a TGI (UACC-257 melanoma) of 4.91 µM, a GI50 (UACC-62 melanoma) of 3.21 µM and a TGI (UACC-62 melanoma) greater than 100 µM. The GI50 (UO-31 renal) was 3.1 µM and the TGI (UO-31 renal) was greater than 100 µM.

Source: PubChem BioAssay (NCI)
